Source: PubChem BioAssay AID252 (DTP/NCI, 2004)
Where “and” joins values, the source holds several entries; their conditions need not be identical. Equal values may be shown once. Toxic doses and inconclusive results are not listed.

Test system: BDF1 mice, intracerebral L1210 leukemia, survival T/C
Experiment: NCI In Vivo Anticancer Drug Screen. Data for tumor model L1210 Leukemia (intracerebral) in B6D2F1 (BDF1) mice
Conditions: endpoint: mean survival time, higher = longer survival
Procedure, shortened: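 Survival measured in treated and vehicle-control tumour-bearing mice; value = T/C.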

[1] = dose: 25.0 mg/kg/injection, schedule: Q01DX Z (ip), vehicle: carboxymethylcellulose (CMC)
[2] = dose: 4.5 mg/kg/injection, schedule: Q01DX001 (ip), vehicle: carboxymethylcellulose (CMC)
[3] = dose: 9.0 mg/kg/injection, schedule: Q01DX001 (ip), vehicle: carboxymethylcellulose (CMC)
[4] = dose: 18.0 mg/kg/injection, schedule: Q01DX001 (ip), vehicle: carboxymethylcellulose (CMC)

In the case of `CC(=O)OCC1OC(n2cnc3c(=S)nc[nH]c32)C(OC(C)=O)C1OC(C)=O` (stereo unspecified), the T/C [1] is reported as 112 % of control and 117 % of control, the T/C (dose: 100.0 mg/kg/injection, schedule: Q01DX Z (ip), vehicle: carboxymethylcellulose (CMC)) is reported as 157 % of control and the T/C (dose: 200.0 mg/kg/injection, schedule: Q01DX Z (ip), vehicle: carboxymethylcellulose (CMC)) is reported as 121 % of control and 87 % of control.

With `CN(N=O)C(=O)Nc1ccc(NC(=O)N(C)N=O)cc1` the T/C [2] was 93 % of control, the T/C [3] was 98 % of control and the T/C [4] was 98 % of control.

`CCOC(=O)c1ccc(NC(=O)N(C)N=O)cc1` was tested, and the T/C (dose: 75.0 mg/kg/injection, schedule: Q01DX001 (ip), vehicle: carboxymethylcellulose (CMC)) was 94 % of control, the T/C (dose: 150.0 mg/kg/injection, schedule: Q01DX001 (ip), vehicle: carboxymethylcellulose (CMC)) was 102 % of control and the T/C (dose: 300.0 mg/kg/injection, schedule: Q01DX001 (ip), vehicle: carboxymethylcellulose (CMC)) was 97 % of control.

`O=NN(CCCl)C(=O)Nc1ccc2c(c1)CCCC2` was tested, and the T/C (dose: 125.0 mg/kg/injection, schedule: Q01DX001 (ip), vehicle: carboxymethylcellulose (CMC)) was 157 % of control, the T/C (dose: 178.0 mg/kg/injection, schedule: Q01DX001 (ip), vehicle: carboxymethylcellulose (CMC)) was 150 % of control and the T/C (dose: 187.0 mg/kg/injection, schedule: Q01DX001 (ip), vehicle: carboxymethylcellulose (CMC)) was 97 % of control. The T/C (dose: 238.0 mg/kg/injection, schedule: Q01DX001 (ip), vehicle: carboxymethylcellulose (CMC)) was 100 % of control.

In the case of `N[C@@H](Cc1ccc(N(CCCl)CCCl)cc1)C(=O)O`, the T/C (dose: 1.0 mg/kg/injection, schedule: Q01DX009 (ip), vehicle: saline) is reported as 111 % of control, the T/C (dose: 1.0 mg/kg/injection, schedule: Q01DX Z (ip), vehicle: carboxymethylcellulose (CMC)) is reported as 98 % of control and the T/C (dose: 1.13 mg/kg/injection, schedule: Q01DX001 (ip), vehicle: carboxymethylcellulose (CMC)) is reported as 104 % of control and 97 % of control. The T/C (dose: 2.0 mg/kg/injection, schedule: Q01DX009 (ip), vehicle: saline) was 114 % of control, the T/C (dose: 2.0 mg/kg/injection, schedule: Q01DX Z (ip), vehicle: carboxymethylcellulose (CMC)) was 111 % of control and the T/C (dose: 2.25 mg/kg/injection, schedule: Q01DX001 (ip), vehicle: carboxymethylcellulose (CMC)) was 103 % of control and 104 % of control. The T/C (dose: 3.0 mg/kg/injection, schedule: Q01DX001 (ip), vehicle: carboxymethylcellulose (CMC)) was 103 % of control and 108 % of control, the T/C [2] was 104 % of control and 110 % of control and the T/C (dose: 8.0 mg/kg/injection, schedule: Q01DX Z (ip), vehicle: carboxymethylcellulose (CMC)) was 102 % of control. The T/C [3] was 119 % of control and 120 % of control, the T/C (dose: 12.5 mg/kg/injection, schedule: Q01DX Z (ip), vehicle: carboxymethylcellulose (CMC)) was 111 % of control and 88 % of control and the T/C (dose: 14.0 mg/kg/injection, schedule: Q01DX001 (ip), vehicle: carboxymethylcellulose (CMC)) was 155 % of control. For the same compound, the T/C [4] was 122 % of control, the T/C [1] was 88 % of control and the T/C (dose: 29.0 mg/kg/injection, schedule: Q01DX001 (ip), vehicle: carboxymethylcellulose (CMC)) was 115 % of control.

In the case of `CCCCCCCCSc1ncnc2c1ncn2CC`, the T/C (dose: 62.0 mg/kg/injection, schedule: Q01DX015 (ip), vehicle: carboxymethylcellulose (CMC)) is reported as 97 % of control, the T/C (dose: 125.0 mg/kg/injection, schedule: Q01DX015 (ip), vehicle: carboxymethylcellulose (CMC)) is reported as 103 % of control and the T/C (dose: 250.0 mg/kg/injection, schedule: Q01DX015 (ip), vehicle: carboxymethylcellulose (CMC)) is reported as 116 % of control. The T/C (dose: 500.0 mg/kg/injection, schedule: Q01DX015 (ip), vehicle: carboxymethylcellulose (CMC)) was 94 % of control.

In the case of `CCCCC(=O)N(c1ccc(Nc2c3ccccc3nc3cc([N+](=O)[O-])ccc23)cc1)S(C)(=O)=O`, the T/C (dose: 3.18 mg/kg/injection, schedule: Q01DX009 (ip), vehicle: saline) is reported as 96 % of control, the T/C (dose: 3.18 mg/kg/injection, schedule: Q01DX009 (sc), vehicle: saline) is reported as 104 % of control and the T/C (dose: 6.25 mg/kg/injection, schedule: Q01DX009 (ip), vehicle: saline) is reported as 99 % of control. The T/C (dose: 6.25 mg/kg/injection, schedule: Q01DX009 (sc), vehicle: saline) was 105 % of control, the T/C (dose: 12.5 mg/kg/injection, schedule: Q01DX009 (ip), vehicle: saline) was 101 % of control and the T/C (dose: 12.5 mg/kg/injection, schedule: Q01DX009 (sc), vehicle: saline) was 103 % of control. The T/C (dose: 25.0 mg/kg/injection, schedule: Q01DX009 (ip), vehicle: saline) was 97 % of control and the T/C (dose: 25.0 mg/kg/injection, schedule: Q01DX009 (sc), vehicle: saline) was 102 % of control.

`COc1ccc(NC(=O)N(C)N=O)cc1` was tested, and the T/C (dose: 67.0 mg/kg/injection, schedule: Q01DX001 (ip), vehicle: carboxymethylcellulose (CMC)) was 94 % of control and the T/C (dose: 100.0 mg/kg/injection, schedule: Q01DX001 (ip), vehicle: carboxymethylcellulose (CMC)) was 90 % of control.

In the case of `CN(C)NCCC#N`, the T/C (dose: 27.0 mg/kg/injection, schedule: Q01DX Z (ip), vehicle: saline) is reported as 105 % of control, the T/C (dose: 40.0 mg/kg/injection, schedule: Q01DX Z (ip), vehicle: saline) is reported as 110 % of control and the T/C (dose: 60.0 mg/kg/injection, schedule: Q01DX Z (ip), vehicle: saline) is reported as 108 % of control. For the same compound, the T/C (dose: 90.0 mg/kg/injection, schedule: Q01DX Z (ip), vehicle: saline) was 109 % of control.
